Laboratory results reported in patent publication US10660877B2 (BRISTOL-MYERS SQUIBB COMPANY, priority 2016, dated 2020).
Like-named read-outs stand apart in the source and are kept apart here.

Experiments:
human TLR7 = human TLR7 (Homo sapiens (Human), UniProt Q9NYK1); assay: TLR7 inhibition reporter assay (HEK-Blue cells, SEAP reporter, gardiquimod stimulation); format: cell-based
human TLR9 = human TLR9 (Homo sapiens (Human), UniProt Q9NR96); assay: TLR9 inhibition reporter assay (HEK-Blue cells, SEAP reporter, ODN2006 stimulation);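 note: compounds tested over 0.05 nM to 50 µM, 22 h incubation, inhibition taken as SEAP signal drop from agonist plus DMSO wells toward a known inhibitor control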
human TLR8 = human TLR8 (Homo sapiens (Human), UniProt Q9NR97); assay: TLR8 inhibition reporter assay (HEK-Blue cells, SEAP reporter, R848 stimulation);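 note: compounds tested from 0.05 nM to 50 µM, 22 h at 37 °C, SEAP measured with HEK-Blue Detection, inhibition relative to agonist plus DMSO versus a known inhibitor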
[1] = HEK-Blue cells overexpressing human TLR7, gardiquimod 7.5 μM
[2] = read-out: TLR9 IC50, HEK-Blue cells overexpressing human TLR9, ODN2006 5 nM
[3] = read-out: TLR8 IC50, HEK-Blue cells overexpressing human TLR8, R848 15.9 μM
[4] = HEK-Blue cells, gardiquimod 7.5 μM
[5] = read-out: TLR9 IC50, HEK-Blue cells, ODN2006 5 nM
[6] = read-out: TLR8 IC50, HEK-Blue cells, R848 15.9 μM

Sequence of human TLR9 (Q9NR96 26-1032): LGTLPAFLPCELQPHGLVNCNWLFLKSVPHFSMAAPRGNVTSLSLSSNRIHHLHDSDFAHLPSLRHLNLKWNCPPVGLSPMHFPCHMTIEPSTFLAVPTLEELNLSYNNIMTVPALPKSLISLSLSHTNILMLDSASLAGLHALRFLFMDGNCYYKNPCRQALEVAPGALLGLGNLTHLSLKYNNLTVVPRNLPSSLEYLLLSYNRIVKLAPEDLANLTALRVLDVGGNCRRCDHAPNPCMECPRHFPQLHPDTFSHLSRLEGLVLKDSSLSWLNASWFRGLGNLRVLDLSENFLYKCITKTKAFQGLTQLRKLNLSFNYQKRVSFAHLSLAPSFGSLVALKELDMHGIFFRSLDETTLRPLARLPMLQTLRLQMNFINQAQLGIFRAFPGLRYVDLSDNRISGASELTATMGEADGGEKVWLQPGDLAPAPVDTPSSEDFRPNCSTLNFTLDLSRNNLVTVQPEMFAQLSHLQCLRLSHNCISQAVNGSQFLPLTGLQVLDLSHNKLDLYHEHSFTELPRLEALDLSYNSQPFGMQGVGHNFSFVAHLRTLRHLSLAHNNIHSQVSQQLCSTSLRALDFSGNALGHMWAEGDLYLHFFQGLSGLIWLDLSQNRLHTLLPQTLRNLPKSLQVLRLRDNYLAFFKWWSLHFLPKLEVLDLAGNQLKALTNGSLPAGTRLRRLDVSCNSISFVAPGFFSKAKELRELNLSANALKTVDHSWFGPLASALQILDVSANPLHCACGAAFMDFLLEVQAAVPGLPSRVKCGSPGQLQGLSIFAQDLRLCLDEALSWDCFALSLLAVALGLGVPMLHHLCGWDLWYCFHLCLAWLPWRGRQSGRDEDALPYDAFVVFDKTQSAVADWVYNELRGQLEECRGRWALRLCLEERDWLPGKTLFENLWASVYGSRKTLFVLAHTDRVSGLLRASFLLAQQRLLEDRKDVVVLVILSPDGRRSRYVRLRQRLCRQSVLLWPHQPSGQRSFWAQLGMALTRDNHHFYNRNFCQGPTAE
Sequence of human TLR8 (Q9NR97 27-1041): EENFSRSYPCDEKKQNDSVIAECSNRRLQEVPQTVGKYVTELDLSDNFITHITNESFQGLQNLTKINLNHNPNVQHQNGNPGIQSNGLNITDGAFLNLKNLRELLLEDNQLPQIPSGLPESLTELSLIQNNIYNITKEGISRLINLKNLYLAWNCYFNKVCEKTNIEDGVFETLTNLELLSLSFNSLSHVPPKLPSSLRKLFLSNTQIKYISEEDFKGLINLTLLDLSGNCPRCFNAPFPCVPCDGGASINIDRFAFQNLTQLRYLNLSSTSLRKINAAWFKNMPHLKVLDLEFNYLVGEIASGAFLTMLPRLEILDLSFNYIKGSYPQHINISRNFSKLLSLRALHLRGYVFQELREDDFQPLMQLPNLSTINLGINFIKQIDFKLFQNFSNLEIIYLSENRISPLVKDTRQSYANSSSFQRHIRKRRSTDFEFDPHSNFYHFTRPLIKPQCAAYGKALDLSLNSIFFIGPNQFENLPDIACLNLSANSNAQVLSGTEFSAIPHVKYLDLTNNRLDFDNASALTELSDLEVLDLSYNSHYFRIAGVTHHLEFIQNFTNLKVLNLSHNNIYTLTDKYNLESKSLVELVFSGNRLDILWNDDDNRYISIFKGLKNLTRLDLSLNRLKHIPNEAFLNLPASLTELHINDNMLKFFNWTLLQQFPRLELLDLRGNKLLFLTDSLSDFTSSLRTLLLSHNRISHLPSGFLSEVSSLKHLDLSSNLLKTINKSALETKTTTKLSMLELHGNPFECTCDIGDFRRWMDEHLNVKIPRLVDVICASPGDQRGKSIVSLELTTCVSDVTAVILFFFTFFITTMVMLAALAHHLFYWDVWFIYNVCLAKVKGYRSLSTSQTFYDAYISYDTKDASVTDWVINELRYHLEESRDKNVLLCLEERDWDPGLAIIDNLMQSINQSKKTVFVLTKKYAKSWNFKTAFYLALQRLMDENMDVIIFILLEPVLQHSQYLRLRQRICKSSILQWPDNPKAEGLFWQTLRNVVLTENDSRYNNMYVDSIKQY
Sequence of human TLR7 (Q9NYK1 27-1049): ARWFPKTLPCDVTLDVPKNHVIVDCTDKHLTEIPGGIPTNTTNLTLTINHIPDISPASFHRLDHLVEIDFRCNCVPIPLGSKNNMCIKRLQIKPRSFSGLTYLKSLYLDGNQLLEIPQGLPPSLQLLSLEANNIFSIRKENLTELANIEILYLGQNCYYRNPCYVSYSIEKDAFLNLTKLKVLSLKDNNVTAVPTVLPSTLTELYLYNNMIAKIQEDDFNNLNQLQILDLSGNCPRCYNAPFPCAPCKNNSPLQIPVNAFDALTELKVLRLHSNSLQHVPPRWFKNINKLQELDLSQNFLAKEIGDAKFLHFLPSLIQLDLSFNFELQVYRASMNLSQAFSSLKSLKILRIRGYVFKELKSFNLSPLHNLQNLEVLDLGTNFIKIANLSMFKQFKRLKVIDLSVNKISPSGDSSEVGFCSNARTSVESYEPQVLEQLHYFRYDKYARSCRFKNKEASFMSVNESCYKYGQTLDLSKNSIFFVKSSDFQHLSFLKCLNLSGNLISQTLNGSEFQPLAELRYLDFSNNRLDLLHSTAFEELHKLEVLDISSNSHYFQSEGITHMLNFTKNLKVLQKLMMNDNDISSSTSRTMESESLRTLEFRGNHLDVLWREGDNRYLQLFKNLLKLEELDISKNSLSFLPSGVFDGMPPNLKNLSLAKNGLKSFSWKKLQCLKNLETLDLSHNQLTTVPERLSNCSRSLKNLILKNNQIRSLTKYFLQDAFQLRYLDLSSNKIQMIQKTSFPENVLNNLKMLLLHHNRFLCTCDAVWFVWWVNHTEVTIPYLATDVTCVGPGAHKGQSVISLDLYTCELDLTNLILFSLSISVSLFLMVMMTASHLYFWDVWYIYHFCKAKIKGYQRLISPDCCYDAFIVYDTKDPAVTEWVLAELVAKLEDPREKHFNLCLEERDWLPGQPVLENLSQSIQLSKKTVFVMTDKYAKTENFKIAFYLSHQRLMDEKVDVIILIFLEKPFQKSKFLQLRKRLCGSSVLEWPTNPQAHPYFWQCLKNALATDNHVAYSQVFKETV

Row | IC50 (human TLR7; [1]) | IC50 (human TLR9; [2]) | IC50 (human TLR8; [3]) | IC50 (human TLR7; [4]) | IC50 (human TLR9; [5]) | IC50 (human TLR8; [6]) | IC50 (human TLR9; TLR9 IC50, HEK-Blue cells overexpressing human TLR9, ODN2006 5 nM) | IC50 (human TLR8; TLR8 IC50, HEK-Blue cells overexpressing human TLR8, R848 15.9 μM) | SMILES
1 | 2.1 nM | 527 nM | 12.9 nM |  |  |  |  |  | Cc1cc(-c2[nH]c3ccc(C4CCN(C(=O)CN5CCOC[C@@H]5CO)CC4)cc3c2C(C)C)cc(C)n1 [Example 405, (S)-1-(4-(2-(2,6-dimethylpyridin-4-yl)-3-isopropyl-1H-indol-5-yl)piperidin-1-yl)-2-(3-(hydroxymethyl)morpholino)ethan-1-one]
2 |  |  |  | 13.5 nM | 96 nM | 467 nM |  |  | Cc1cc(-c2[nH]c3cc(C(F)(F)F)c(C4CCN(CC5CCNC5)CC4)cc3c2C(C)C)ccn1 (stereo not drawn) [Example 873, 3-isopropyl-2-(2-methylpyridin-4-yl)-5-(1-(pyrrolidin-3-ylmethyl)piperidin-4-yl)-6-(trifluoromethyl)-1H-indole]
3 | 834 nM | 6940 nM | 1240 nM |  |  |  |  |  | CNC(=O)CN1CCC(c2ccc3[nH]c(-c4cc(C)nc(F)c4)c(C(C)C)c3c2)CC1 [Example 498, 2-(4-(2-(2-fluoro-6-methylpyridin-4-yl)-3-isopropyl-1H-indol-5-yl)piperidin-1-yl)-N-methylacetamide]
4 | 15.4 nM | 973 nM | 36.3 nM |  |  |  |  |  | Cc1cc(-c2[nH]c3ccc(C4CCN(CC(=O)N5CCCC(C)(C)C5)CC4)cc3c2C(C)C)cc(C)n1 [Example 249, 1-(3,3-dimethylpiperidin-1-yl)-2-(4-(2-(2,6-dimethylpyridin-4-yl)-3-isopropyl-1H-indol-5-yl)piperidin-1-yl)ethan-1-one]
5 | 3690 nM | > 50000 nM | 10700 nM |  |  |  |  |  | CC(=O)N1CCC(c2ccc3[nH]c(-c4cc(C)nc(F)c4)c(C(C)C)c3c2)CC1 [Example 499, 1-(4-(2-(2-fluoro-6-methylpyridin-4-yl)-3-isopropyl-1H-indol-5-yl)piperidin-1-yl)ethan-1-one]
6 | 6.7 nM | 1590 nM | 8.9 nM |  |  |  |  |  | Cc1cc(-c2[nH]c3ccc(C4CCN(CC(=O)NCC#N)CC4)cc3c2C(C)C)cc(C)n1 [Example 239, N-(cyanomethyl)-2-(4-(2-(2,6-dimethylpyridin-4-yl)-3-isopropyl-1H-indol-5-yl)piperidin-1-yl)acetamide]
7 | 3400 nM | 15000 nM | 1840 nM |  |  |  |  |  | Cc1cc(-c2[nH]c3ccc(C4CCN(C(=O)OCC(C)C)CC4)cc3c2C(C)C)ccn1 [Example 558, isobutyl 4-(3-isopropyl-2-(2-methylpyridin-4-yl)-1H-indol-5-yl)piperidine-1-carboxylate]
8 | 1540 nM | 26500 nM | 448 nM |  |  |  |  |  | Cc1cc(-c2[nH]c3ccc(C4CCNCC4)cc3c2C(C)C)c(C(N)=O)cn1 [Example 15, 4-(3-isopropyl-5-(piperidin-4-yl)-1H-indol-2-yl)-6-methylnicotinamide]
9 | 172 nM | 213 nM | 32.7 nM |  |  |  |  |  | CCc1c(-c2ccnc(C)c2)[nH]c2ccc(C3CCN(C[C@@H]4CCCN4C(C)C)CC3)cc12 [Example 741, (S)-3-ethyl-5-(1-((1-isopropylpyrrolidin-2-yl)methyl)piperidin-4-yl)-2-(2-methylpyridin-4-yl)-1H-indole]
10 | 486 nM | > 50000 nM | 1030 nM |  |  |  |  |  | Cc1cc(-c2[nH]c3ccc(C4CCN(S(=O)(=O)c5ccc(F)cc5)CC4)cc3c2C(C)C)ccn1 [Example 551, 5-(1-((4-fluorophenyl)sulfonyl)piperidin-4-yl)-3-isopropyl-2-(2-methylpyridin-4-yl)-1H-indole]
11 | 6.1 nM | 946 nM | 3.9 nM |  |  |  |  |  | Cc1cc(-c2[nH]c3ccc(C4CCNCC4)cc3c2C(C)C)ccn1 [Example 5, 3-isopropyl-2-(2-methylpyridin-4-yl)-5-(piperidin-4-yl)-1H-indole]
12 | 1 nM | 775 nM | 2.5 nM |  |  |  |  |  | Cc1cc(-c2[nH]c3ccc(C4CCNCC4)cc3c2C(C)C)c(F)c(C)n1 [Example 51, 2-(3-fluoro-2,6-dimethylpyridin-4-yl)-3-isopropyl-5-(piperidin-4-yl)-1H-indole]
13 | 36.5 nM | 2040 nM | 66.4 nM |  |  |  |  |  | FC(F)Cc1c(-c2ccnc(Cl)c2)[nH]c2ccc(C3CCNCC3)cc12 [Example 494, 2-(2-chloropyridin-4-yl)-3-(2,2-difluoroethyl)-5-(piperidin-4-yl)-1H-indole]
14 | 49 nM | 2760 nM | 213 nM |  |  |  |  |  | COc1cc(-c2[nH]c3ccc(C4CCNCC4)cc3c2C(C)C)cc(C2CC2)n1 [Example 486, 2-(2-cyclopropyl-6-methoxypyridin-4-yl)-3-isopropyl-5-(piperidin-4-yl)-1H-indole]
15 | 43 nM | 513 nM | 17.4 nM |  |  |  |  |  | CCc1c(-c2ccnc(C)c2)[nH]c2ccc(C3CCN(C(=O)C4CCN(C)CC4)CC3)cc12 [Example 593, (4-(3-ethyl-2-(2-methylpyridin-4-yl)-1H-indol-5-yl)piperidin-1-yl)(1-methylpiperidin-4-yl)methanone]

The remaining lines, values behind:

Row | SMILES | IC50 (human TLR7; [1]) | IC50 (human TLR9; [2]) | IC50 (human TLR8; [3]) | IC50 (human TLR7; [4]) | IC50 (human TLR9; [5]) | IC50 (human TLR8; [6]) | IC50 (human TLR9; TLR9 IC50, HEK-Blue cells overexpressing human TLR9, ODN2006 5 nM) | IC50 (human TLR8; TLR8 IC50, HEK-Blue cells overexpressing human TLR8, R848 15.9 μM)
16 | Cc1cc(-c2[nH]c3ccc(C4CCN(CC(N)=O)CC4)cc3c2C(C)C)c(F)cn1 [Example 652, 2-(4-(2-(5-fluoro-2-methylpyridin-4-yl)-3-isopropyl-1H-indol-5-yl)piperidin-1-yl)acetamide] | 1.5 nM | 1290 nM | 3 nM |  |  |  |  | 
17 | Cc1cc(-c2[nH]c3ccc(C4CCN(C(=O)CN(C)C)CC4)cc3c2C(C)C)ccn1 [Example 509, 2-(dimethylamino)-1-(4-(3-isopropyl-2-(2-methylpyridin-4-yl)-1H-indol-5-yl)piperidin-1-yl)ethan-1-one] | 20 nM | 3710 nM | 21.9 nM |  |  |  |  | 
18 | COc1cc(OC)nc(CN2CCC(c3ccc4[nH]c(-c5cc(C)ncc5C)c(C(C)C)c4c3)CC2)n1 [Example 693, 5-(1-((4,6-dimethoxypyrimidin-2-yl)methyl)piperidin-4-yl)-2-(2,5-dimethylpyridin-4-yl)-3-isopropyl-1H-indole] | 33.1 nM | 1680 nM | 5.2 nM |  |  |  |  | 
19 | Cc1cc(-c2[nH]c3ccc(C4CCN(Cc5c[nH]nn5)CC4)cc3c2C(C)C)c(C)cn1 [Example 690, 5-(1-((1H-1,2,3-triazol-4-yl)methyl)piperidin-4-yl)-2-(2,5-dimethylpyridin-4-yl)-3-isopropyl-1H-indole] | 11 nM | 3510 nM | 1.9 nM |  |  |  |  | 
20 | CC(C)c1c(-c2cc(C3CC3)ncc2F)[nH]c2ccc(C3CCN(C(=O)CN(C)C)CC3)cc12 [Example 516, 1-(4-(2-(2-cyclopropyl-5-fluoropyridin-4-yl)-3-isopropyl-1H-indol-5-yl)piperidin-1-yl)-2-(dimethylamino)ethan-1-one] | 12.1 nM | 1460 nM | 190 nM |  |  |  |  | 
21 | Cc1cc(-c2[nH]c3ccc(C4CCN(CCO)CC4)cc3c2C(C)C)c(F)cn1 [Example 647, 2-(4-(2-(5-fluoro-2-methylpyridin-4-yl)-3-isopropyl-1H-indol-5-yl)piperidin-1-yl)ethan-1-ol] | 3.9 nM | 2660 nM | 2.3 nM |  |  |  |  | 
22 | Cc1cc(-c2[nH]c3ccc(C4CCN(C(=O)CCN5CCOCC5)CC4)cc3c2C(C)C)cc(C)n1 [Example 128, 1-(4-(2-(2,6-dimethylpyridin-4-yl)-3-isopropyl-1H-indol-5-yl)piperidin-1-yl)-3-morpholinopropan-1-one] | 3.9 nM | 730 nM | 15.5 nM |  |  |  |  | 
23 | Cc1cc(-c2[nH]c3ccc(C4CCN(C(=O)CNC[C@@H](O)CO)CC4)cc3c2C(C)C)ccn1 [Example 511, (R)-2-((2,3-dihydroxypropyl)amino)-1-(4-(3-isopropyl-2-(2-methylpyridin-4-yl)-1H-indol-5-yl)piperidin-1-yl)ethan-1-one] | 32.6 nM | 1460 nM | 31.3 nM |  |  |  |  | 
24 | Cc1cc(-c2[nH]c3ccc(C4CCN(C5CCOC6CCCC65)CC4)cc3c2C(C)C)cc(C)n1 (stereo not drawn) [Example 458, 2-(2,6-dimethylpyridin-4-yl)-3-isopropyl-5-(1-(octahydrocyclopenta[b]pyran-4-yl)piperidin-4-yl)-1H-indole] | 16.6 nM | 534 nM | 21.3 nM |  |  |  |  | 
25 | CC(C)c1c(-c2ccnc(CN)c2)[nH]c2ccc(C3CCNCC3)cc12 [Example 14, (4-(3-isopropyl-5-(piperidin-4-yl)-1H-indol-2-yl)pyridin-2-yl)methanamine] | 423 nM | 1200 nM | 187 nM |  |  |  |  | 
26 | Cc1cc(-c2[nH]c3ccc(C4CCN(C(=O)CN5CCCC5)CC4)cc3c2C(C)C)cc(C)n1 [Example 352, 1-(4-(2-(2,6-dimethylpyridin-4-yl)-3-isopropyl-1H-indol-5-yl)piperidin-1-yl)-2-(pyrrolidin-1-yl)ethan-1-one] | 3.3 nM | 365 nM | 10.4 nM |  |  |  |  | 
27 | Cc1cc(-c2[nH]c3ccc(C4CCN(CC(=O)N5CCOCC5)CC4)cc3c2C(C)C)cc(C)n1 [Example 232, 2-(4-(2-(2,6-dimethylpyridin-4-yl)-3-isopropyl-1H-indol-5-yl)piperidin-1-yl)-1-morpholinoethan-1-one] | 3.6 nM |  |  |  |  |  | 627 nM | 7.7 nM
28 | Cc1cc(-c2[nH]c3ccc(C4CCNCC4)cc3c2CC2CC2)ccn1 [Example 89, 3-(cyclopropylmethyl)-2-(2-methylpyridin-4-yl)-5-(piperidin-4-yl)-1H-indole] | 13.6 nM | 548 nM | 10.7 nM |  |  |  |  | 
29 | Cc1cc(-c2[nH]c3cc(F)c(C4CCN(C5CCOCC5)CC4)cc3c2C(C)C)cc(C)n1 [Example 831, 2-(2,6-dimethylpyridin-4-yl)-6-fluoro-3-isopropyl-5-(1-(tetrahydro-2H-pyran-4-yl)piperidin-4-yl)-1H-indole] |  |  |  | 6.2 nM | 567 nM | 11.6 nM |  | 
